Measurements: ChEMBL document CHEMBL5154739, “Structure-activity relationships of N-terminal variants of peptidomimetic tissue transglutaminase inhibitors” (Eur J Med Chem, 2022)
The source made the active and inactive calls. No cut-off for these calls is given here.

What was measured:
[1] = biological target: T1, Protein-glutamine gamma-glutamyltransferase (Homo sapiens) (UniProt P21980); assay: Inhibition of TG2 (unknown origin) using Cbz-Glu(gamma-p-nitrophenyl ester)Gly (AL5) as substrate assessed as Kinact/Ki ratio and measured by colorimetric assay
T1 sequence (whole entry): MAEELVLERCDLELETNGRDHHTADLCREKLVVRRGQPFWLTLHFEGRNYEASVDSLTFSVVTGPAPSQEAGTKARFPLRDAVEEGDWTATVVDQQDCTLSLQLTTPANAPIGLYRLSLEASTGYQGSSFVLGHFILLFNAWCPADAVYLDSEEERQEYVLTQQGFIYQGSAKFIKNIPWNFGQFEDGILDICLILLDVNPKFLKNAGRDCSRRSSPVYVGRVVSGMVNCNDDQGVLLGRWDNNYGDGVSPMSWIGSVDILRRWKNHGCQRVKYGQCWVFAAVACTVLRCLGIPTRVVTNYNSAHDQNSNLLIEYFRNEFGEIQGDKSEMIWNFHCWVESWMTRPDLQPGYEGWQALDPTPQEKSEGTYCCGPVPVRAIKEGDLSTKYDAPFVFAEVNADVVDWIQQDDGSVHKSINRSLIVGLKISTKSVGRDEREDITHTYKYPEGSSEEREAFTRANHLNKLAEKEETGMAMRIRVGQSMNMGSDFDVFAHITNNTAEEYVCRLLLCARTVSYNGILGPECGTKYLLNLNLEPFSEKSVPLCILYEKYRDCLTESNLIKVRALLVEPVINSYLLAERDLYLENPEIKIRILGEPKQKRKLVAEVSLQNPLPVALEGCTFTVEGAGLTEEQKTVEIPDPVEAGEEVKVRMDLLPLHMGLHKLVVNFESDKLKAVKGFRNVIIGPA

[2] = biological target: T1, Protein-glutamine gamma-glutamyltransferase (Homo sapiens); assay: (§1) Inhibition of TG2 (unknown origin) using Cbz-Glu(gamma-p-nitrophenyl ester)Gly (AL5) as substrate and measured by colorimetric assay
[3] = biological target: T2, Protein-glutamine gamma-glutamyltransferase (Homo sapiens, UniProt P21980); assay: as §1
T2 sequence (P21980 whole entry): T1 sequence (whole entry)

[4] = Anti-invasion activity against human SCC-13 cells assessed as inhibition of invasion incubated for 18 hrs by matrigel trans well plate assay; format: functional, cell-based; conditions: SCC-13, 18 h
[5] = tested on: P-gp; assay: Substrate activity at P-gp in dog MDCK cells assessed as apparent permeability across basolateral to apical membrane; format: ADME, cell-based, Canis lupus familiaris; conditions: MDCK-MDR1
[6] = tested on: MDR1 (P-gp); assay: Apparent permeability from apical to basolateral side in dog MDCK-MDR1 cells; format: ADME, cell-based, Canis lupus familiaris
[7] = Half-life in plasma (unknown origin); format: ADME, cell-free
[8] = tested on: MDR1 (P-gp); assay: Efflux ratio of apparent permeability in dog MDCK-MDR1 cells; format: ADME, cell-based, Canis lupus familiaris
[9] = tested on: P-gp; assay: Substrate activity at P-gp in dog MDCK cells assessed as apparent permeability across apical to basolateral membrane; format: ADME, cell-based, Canis lupus familiaris; conditions: MDCK-MDR1
[10] = Plasma protein binding (unknown origin) assessed as drug recovery; format: ADME, cell-free; conditions: read-out: Drug recovery
[11] = Plasma protein binding (unknown origin); format: ADME, cell-free; conditions: read-out: PPB (converted)
[12] = tested on: MDR1 (P-gp); assay: Apparent permeability from basolateral to apical side in dog MDCK-MDR1 cells; format: ADME, cell-based, Canis lupus familiaris
[13] = tested on: P-gp; assay: Substrate activity at P-gp in dog MDCK cells assessed as efflux ratio; format: ADME, cell-based, Canis lupus familiaris; conditions: MDCK-MDR1
[14] = biological target: T1, Protein-glutamine gamma-glutamyltransferase (Homo sapiens); assay: Inhibition of GTP binding to TG2 (unknown origin) measured by GTP Gamma-S-FL BODIPY assay

Ratio [1] | Kinact [2] [min⁻¹] | Compound | other results
391 10^3/M/min | – | C=CC(=O)NCCCC[C@H](NC(=O)Cc1ccccc1)C(=O)N1CCN(c2cccnc2)CC1 | –
39.4 10^3/M/min | 0.39 | C=CC(=O)NCCCC[C@H](NC(=O)c1ccccc1F)C(=O)N1CCN(C(=O)c2cccc3ccccc23)CC1 | –
44.1 10^3/M/min | 1.45 | C=CC(=O)NCCCC[C@H](NC(C)=O)C(=O)N1CCN(C(=O)c2cccc3ccccc23)CC1 | –
155 10^3/M/min | 0.75 | C=CC(=O)NCCCC[C@H](NC(=O)Cc1cccc(F)c1)C(=O)N1CCN(C(=O)c2cccc3ccccc23)CC1 | –
22.6 10^3/M/min | 0.57 | C=CC(=O)NCCCC[C@H](NS(C)(=O)=O)C(=O)N1CCN(C(=O)c2cccc3ccccc23)CC1 | Ki [3]: 253 µM
295 10^3/M/min | 5.3 | C=CC(=O)NCCCC[C@H](NC(=O)Cc1ccccc1Cl)C(=O)N1CCN(C(=O)c2cccc3ccccc23)CC1 | EC50 [4]: 92 µM
299 10^3/M/min | 1.4 | C=CC(=O)NCCCC[C@H](NC(=O)Cc1ccccc1OC)C(=O)N1CCN(C(=O)c2cccc3ccccc23)CC1 | –
508 10^3/M/min | – | C=CC(=O)NCCCC[C@H](NC(=O)Cc1ccccc1)C(=O)N1CCN(c2ccc([N+](=O)[O-])nc2)CC1 | –
310 10^3/M/min | 3.1 | C=CC(=O)NCCCC[C@H](NC(=O)Cc1ccccc1Br)C(=O)N1CCN(C(=O)c2cccc3ccccc23)CC1 | EC50 [4]: 94 µM
36.5 10^3/M/min | 0.29 | C=CC(=O)NCCCC[C@H](NC(=O)c1ccc2ccccc2c1)C(=O)N1CCN(C(=O)c2cccc3ccccc23)CC1 | –
290 10^3/M/min | 0.3 | C=CC(=O)NCCCC[C@H](NC(=O)Cc1cccc(Cl)c1)C(=O)N1CCN(C(=O)c2cccc3ccccc23)CC1 | –
100 10^3/M/min | 0.38 | C=CC(=O)NCCCC[C@H](NC(=O)OCc1ccccc1)C(=O)N1CCN(S(=O)(=O)c2cccc3c(N(C)C)cccc23)CC1 | Ki [3]: 3.8 µM; EC50 [4]: 3.9 µM
352 10^3/M/min | 2.1 | C=CC(=O)NCCCC[C@H](NC(=O)Cc1ccccc1C)C(=O)N1CCN(C(=O)c2cccc3ccccc23)CC1 | Papp B→A [5]: 3 ×10⁻⁶ cm/s; Papp A→B [6]: 0.32 ×10⁻⁶ cm/s; half-life [7]: 568 min; efflux ratio [8]: 51.6; Papp A→B [9]: 3.2 ×10⁻⁶ cm/s; recovery [10]: 93%; fraction unbound [11]: 0.15; Papp B→A [12]: 16.5 ×10⁻⁶ cm/s; efflux ratio [13]: 0.93
96.6 10^3/M/min | 1.02 | C=CC(=O)NCCCC[C@H](NC(=O)C1CC1)C(=O)N1CCN(C(=O)c2cccc3ccccc23)CC1 | –
– | 0.387 | C=CC(=O)NCC(=O)N1CCN(S(=O)(=O)c2cccc3c(N(C)C)cccc23)CC1 | Ki [3]: 1.31 µM
214 10^3/M/min | 0.6 | C=CC(=O)NCCCC[C@H](NC(=O)CCc1ccccc1)C(=O)N1CCN(C(=O)c2cccc3ccccc23)CC1 | –
16 10^3/M/min | 0.46 | C=CC(=O)NCCCC[C@H](NC(=O)c1cn(C)cn1)C(=O)N1CCN(C(=O)c2cccc3ccccc23)CC1 | Ki [3]: 28.7 µM
39.6 10^3/M/min | 0.21 | C=CC(=O)NCCCC[C@H](NC(=O)CCCc1ccccc1)C(=O)N1CCN(C(=O)c2cccc3ccccc23)CC1 | –
119 10^3/M/min | 0.49 | C=CC(=O)NCCCC[C@H](NC(=O)Cc1ccc(F)cc1)C(=O)N1CCN(C(=O)c2cccc3ccccc23)CC1 | –
20.1 10^3/M/min | 0.41 | C=CC(=O)NCCCC[C@H](NC(=O)c1cccc2ccccc12)C(=O)N1CCN(C(=O)c2cccc3ccccc23)CC1 | –
12.6 10^3/M/min | 0.28 | C=CC(=O)NCCCC[C@H](NC(=O)c1cncn1C)C(=O)N1CCN(C(=O)c2cccc3ccccc23)CC1 | Ki [3]: 22.3 µM
14 10^3/M/min | 0.41 | C=CC(=O)NCCCC[C@H](NC(=O)OCc1ccccc1)C(=O)NCCOCCOCCNS(=O)(=O)c1cccc2c(N(C)C)cccc12 | Ki [3]: 29 µM; EC50 [4]: 20 µM

Ratio [1] | Kinact [2] [min⁻¹] | Compound | other results
170 10^3/M/min | 0.46 | C=CC(=O)NCCCC[C@H](NC(=O)Cc1cccc(Cl)c1Cl)C(=O)N1CCN(C(=O)c2cccc3ccccc23)CC1 | –
31.1 10^3/M/min | 0.83 | C=CC(=O)NCCCC[C@H](NS(=O)(=O)CC)C(=O)N1CCN(C(=O)c2cccc3ccccc23)CC1 | –
56.2 10^3/M/min | 0.49 | C=CC(=O)NCCCC[C@H](NC(=O)C(C)(C)C)C(=O)N1CCN(C(=O)c2cccc3ccccc23)CC1 | –
65.1 10^3/M/min | 0.65 | C=CC(=O)NCCCC[C@H](NC(=O)C(C)C)C(=O)N1CCN(C(=O)c2cccc3ccccc23)CC1 | –
244 10^3/M/min | 1.2 | C=CC(=O)NCCCC[C@H](NC(=O)OCc1ccccc1)C(=O)N1CCN(C(=O)c2cccc3ccccc23)CC1 | Ki [3]: 4.8 µM
55.4 10^3/M/min | 0.9 | C=CC(=O)NCCCC[C@H](NC(=O)c1ccc(F)cc1)C(=O)N1CCN(C(=O)c2cccc3ccccc23)CC1 | –
12.7 10^3/M/min | 0.24 | C=CC(=O)NCCCC[C@H](NC(=O)c1ccncc1)C(=O)N1CCN(C(=O)c2cccc3ccccc23)CC1 | –
103 10^3/M/min | 0.53 | C=CC(=O)NCCCC[C@H](NC(=O)CC)C(=O)N1CCN(C(=O)c2cccc3ccccc23)CC1 | –
11.4 10^3/M/min | 0.53 | C=CC(=O)NCCCC[C@H](NS(=O)(=O)Cc1ccccc1)C(=O)N1CCN(C(=O)c2cccc3ccccc23)CC1 | –
7.1 10^3/M/min | 0.63 | C=CC(=O)NCCCC[C@H](NS(=O)(=O)c1ccccc1)C(=O)N1CCN(C(=O)c2cccc3ccccc23)CC1 | –
23.3 10^3/M/min | 0.59 | C=CC(=O)NCCCC[C@H](NC(=O)c1cccnc1)C(=O)N1CCN(C(=O)c2cccc3ccccc23)CC1 | –
33.6 10^3/M/min | 0.33 | C=CC(=O)NCCCC[C@H](NC(=O)C1CCCCC1)C(=O)N1CCN(C(=O)c2cccc3ccccc23)CC1 | –
131 10^3/M/min | 0.08 | C=CC(=O)NCCCC[C@H](NC(=O)Cc1ccc(Cl)c(Cl)c1)C(=O)N1CCN(C(=O)c2cccc3ccccc23)CC1 | –
14.9 10^3/M/min | 0.23 | C=CC(=O)NCCCC[C@H](NC(=O)C1C2CC3CC(C2)CC1C3)C(=O)N1CCN(C(=O)c2cccc3ccccc23)CC1 (stereo partly specified) | –
224 10^3/M/min | 0.62 | C=CC(=O)NCCCC[C@H](NC(=O)Cc1ccc(F)cc1F)C(=O)N1CCN(C(=O)c2cccc3ccccc23)CC1 | –
100 10^3/M/min | 1 | C=CC(=O)NCCCC[C@H](NC(=O)Cc1ccccc1C(F)(F)F)C(=O)N1CCN(C(=O)c2cccc3ccccc23)CC1 | –
66.7 10^3/M/min | 0.64 | C=CC(=O)NCCCC[C@H](NC(=O)CC(C)C)C(=O)N1CCN(C(=O)c2cccc3ccccc23)CC1 | –
9.6 10^3/M/min | 0.39 | C=CC(=O)NCCCC[C@H](NC(=O)c1ccccn1)C(=O)N1CCN(C(=O)c2cccc3ccccc23)CC1 | –
20.9 10^3/M/min | 0.26 | C=CC(=O)NCCCC[C@H](NC(=O)CC1CCCCC1)C(=O)N1CCN(C(=O)c2cccc3ccccc23)CC1 | –
47.8 10^3/M/min | 0.64 | C=CC(=O)NCCCC[C@H](NC(=O)c1cccc(F)c1)C(=O)N1CCN(C(=O)c2cccc3ccccc23)CC1 | –
11.5 10^3/M/min | 0.18 | C=CC(=O)NCCCC[C@H](NC(=O)c1nccn1C)C(=O)N1CCN(C(=O)c2cccc3ccccc23)CC1 | –

Compound | Ratio [1] | Kinact [2] [min⁻¹] | other results
C=CC(=O)NCCCC[C@H](NC(=O)Cc1ccccc1F)C(=O)N1CCN(C(=O)c2cccc3ccccc23)CC1 | 443 10^3/M/min | 0.46 | Papp B→A [5]: 2.8 ×10⁻⁶ cm/s; Papp A→B [6]: 0.29 ×10⁻⁶ cm/s; half-life [7]: 1080 min; efflux ratio [8]: 61.7; Papp A→B [9]: 2.2 ×10⁻⁶ cm/s; recovery [10]: 86%; fraction unbound [11]: 0.16; inhibition [14]: Active; Papp B→A [12]: 18.2 ×10⁻⁶ cm/s; EC50 [4]: 77 µM; efflux ratio [13]: 1.3
